The values below come from article PMC12116762, “Topobexin targets the Topoisomerase II ATPase domain for beta isoform-selective inhibition and anthracycline cardioprotection” (Nature Communications, 2025).

“And” between values parts separate entries of the source, which are not always exact repeats. Identical values can stand only once.

What all share (type): biochemical
One assay deals with T1, recombinant human TOP2B (Homo sapiens, UniProt Q02880).
T1 construct: Using recombinant full-length human TOP2A and TOP2B enzymes; YFP (N, cleaved yes); made in house; host or cells: HEK293F
Put plainly: In vitro ATPase activity of TOP2B (coupled assay). The procedure:
(§1) Topoisomerase proteins were diluted to 500 nM in storage buffer containing 20 mM HEPES pH 7.5, 500 mM NaCl, 0.5 mM TCEP, 25% glycerol, and 0.2 mg/mL BSA prior to use. A coupled assay was used to measure TOP2-catalyzed ATP hydrolysis in vitro[37] in Costar 96-well plates (Corning Incorporated). […] Reaction plates were pre-warmed to 30 °C for 5 min and ATP was added last to initiate the reaction. The reaction plate was placed in a CLARIOstarPlus plate reader (BMG Labtech) to measure NADH fluorescence at 30 °C every 30 s over 120 cycles using a 340-60 excitation filter and a 480-100 emission filter. Background fluorescence signals calculated from wells containing no ATP were subtracted from each measurement. The slope of NADH fluorescence decay in each well was calculated using the MARS software (BMG Labtech) and reaction wells that lacked topoisomerase inhibitor to account for photobleaching of NADH fluorescence served as background subtraction. Each presented data point was obtained from distinct sample. Values were normalized to untreated controls and plotted as a function of inhibitor concentration to determine IC50 values using Prism 9 (GraphPad).

For assay [1], the target named is T2, recombinant human TOP2A (Homo sapiens, UniProt P11388).
T2 construct: Using recombinant full-length human TOP2A and TOP2B enzymes; YFP (N, cleaved yes); made in house; host or cells: HEK293F
Put plainly: DNA decatenation assay, recombinant TOP2A. As to conditions: enzyme expressed in HEK293F, n=3. The procedure: The human topoisomerase II decatenation assay was performed to determine the inhibitory effects of BNS-22 and new compounds as previously described with minor modifications[14],[36]. The assay was performed using recombinant human TOP2A or TOP2B generated using the HEK293F YFP-tag expression system as previously described[18],[19],[36]. Briefly, plasmids encoding YFP-TOP2A or YFP-TOP2B were transfected into HEK293F cells (Catalog number 11625019, Thermofisher Scientific), and TOP2 proteins were isolated from cell lysates by anti-YFP nanobody affinity chromatography. After elution by TEV protease cleavage, TOP2 proteins were FPLC purified by sequential cation exchange and size exclusion chromatography. Plasmid encoding TOP2B C88Y was generated by round-the-horn PCR mutagenesis and the sequence was verified by full-plasmid sequencing. Purified TOP2 proteins were stored in a storage buffer containing 20 mM HEPES pH 7.5, 500 mM NaCl, 0.5 mM TCEP, 25% (v/v) glycerol at -80 °C. For decatenation assays, purified TOP2 proteins were incubated with 200 ng kDNA (Topogen) in a reaction buffer containing 50 mM Tris−HCl (pH 8), 100 mM NaCl, 10 mM MgCl2, 0.5 mM DTT, 2 mM ATP, 0.1 mM tris(2-carboxyethyl)phosphine (TCEP), 5% (v/v) glycerol, 70 μg/mL bovine serum albumin, and 1/10 volume of each compound diluted in 10% DMSO (final DMSO concentration 1%) for 40 min at 37 °C. The reaction was then stopped by the addition of gel loading buffer (0.5 volumes of 60% (w/v) glycerol, 60 mM EDTA, 20 mM Tris−HCl (pH 7.5), 0.5 mg/mL bromophenol blue) and the samples were placed on ice. Reaction products were resolved by agarose gel electrophoresis in TBE buffer containing GelRed stain (Biotium). Gels were visualized using an iBright CL1000 (Thermofisher Scientific). Band intensities were quantified using FIJI, and the signal of the treated samples was normalized to the value of the control (untreated sample; 100%) present on the same gel. The normalized signal of three independent measurements was then expressed as mean ± SD. Each presented data point was obtained from distinct sample. Normalized values were plotted as a function of inhibitor concentration to determine IC50 values by nonlinear regression with variable slope using Prism 9 (GraphPad).

Assay [2] deals with T2, recombinant human TOP2A. As to the kind of experiment: In vitro ATPase activity of TOP2A (coupled assay). The procedure:
as §1

T1 sequence (Q02880 1-1621 isoform Q02880-2): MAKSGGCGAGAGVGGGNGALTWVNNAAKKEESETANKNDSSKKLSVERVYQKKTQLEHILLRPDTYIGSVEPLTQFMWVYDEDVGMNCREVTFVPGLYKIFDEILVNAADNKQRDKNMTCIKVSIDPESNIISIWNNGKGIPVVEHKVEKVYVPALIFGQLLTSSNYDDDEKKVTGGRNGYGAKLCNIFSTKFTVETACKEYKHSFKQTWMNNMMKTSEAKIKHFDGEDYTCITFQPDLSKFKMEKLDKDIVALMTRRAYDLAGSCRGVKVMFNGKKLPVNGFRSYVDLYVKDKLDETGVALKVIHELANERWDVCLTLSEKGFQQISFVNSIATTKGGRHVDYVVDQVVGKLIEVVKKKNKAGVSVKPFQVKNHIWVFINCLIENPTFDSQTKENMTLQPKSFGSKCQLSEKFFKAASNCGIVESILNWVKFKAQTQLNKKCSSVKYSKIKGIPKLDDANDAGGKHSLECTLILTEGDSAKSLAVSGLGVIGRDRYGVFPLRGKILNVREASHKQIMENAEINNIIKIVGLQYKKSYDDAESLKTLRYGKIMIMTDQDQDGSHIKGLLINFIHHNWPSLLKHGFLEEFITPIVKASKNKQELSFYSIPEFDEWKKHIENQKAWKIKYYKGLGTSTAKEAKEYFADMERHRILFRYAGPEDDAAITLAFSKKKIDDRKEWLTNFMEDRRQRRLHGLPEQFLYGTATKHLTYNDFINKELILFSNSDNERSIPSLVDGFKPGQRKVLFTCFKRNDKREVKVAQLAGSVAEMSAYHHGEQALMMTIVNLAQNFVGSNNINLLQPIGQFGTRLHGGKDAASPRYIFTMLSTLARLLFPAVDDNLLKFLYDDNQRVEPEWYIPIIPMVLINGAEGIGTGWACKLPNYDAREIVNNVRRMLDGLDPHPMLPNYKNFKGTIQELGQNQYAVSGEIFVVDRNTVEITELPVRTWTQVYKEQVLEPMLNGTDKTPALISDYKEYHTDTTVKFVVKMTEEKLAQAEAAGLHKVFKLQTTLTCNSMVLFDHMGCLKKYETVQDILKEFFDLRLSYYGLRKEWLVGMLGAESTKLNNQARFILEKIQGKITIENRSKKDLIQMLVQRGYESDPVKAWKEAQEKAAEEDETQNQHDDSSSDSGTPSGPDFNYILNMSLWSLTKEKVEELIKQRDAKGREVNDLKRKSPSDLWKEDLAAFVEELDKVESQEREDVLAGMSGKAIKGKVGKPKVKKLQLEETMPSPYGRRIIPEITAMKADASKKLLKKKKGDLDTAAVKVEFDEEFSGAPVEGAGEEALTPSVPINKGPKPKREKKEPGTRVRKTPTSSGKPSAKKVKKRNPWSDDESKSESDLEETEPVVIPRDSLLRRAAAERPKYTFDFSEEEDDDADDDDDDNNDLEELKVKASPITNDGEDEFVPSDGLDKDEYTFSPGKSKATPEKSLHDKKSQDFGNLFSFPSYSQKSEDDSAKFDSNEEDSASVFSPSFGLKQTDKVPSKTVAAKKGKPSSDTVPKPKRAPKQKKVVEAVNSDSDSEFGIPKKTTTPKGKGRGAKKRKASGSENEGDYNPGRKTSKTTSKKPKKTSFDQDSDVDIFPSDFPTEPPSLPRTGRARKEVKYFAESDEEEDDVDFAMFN
T2 sequence (P11388 whole entry): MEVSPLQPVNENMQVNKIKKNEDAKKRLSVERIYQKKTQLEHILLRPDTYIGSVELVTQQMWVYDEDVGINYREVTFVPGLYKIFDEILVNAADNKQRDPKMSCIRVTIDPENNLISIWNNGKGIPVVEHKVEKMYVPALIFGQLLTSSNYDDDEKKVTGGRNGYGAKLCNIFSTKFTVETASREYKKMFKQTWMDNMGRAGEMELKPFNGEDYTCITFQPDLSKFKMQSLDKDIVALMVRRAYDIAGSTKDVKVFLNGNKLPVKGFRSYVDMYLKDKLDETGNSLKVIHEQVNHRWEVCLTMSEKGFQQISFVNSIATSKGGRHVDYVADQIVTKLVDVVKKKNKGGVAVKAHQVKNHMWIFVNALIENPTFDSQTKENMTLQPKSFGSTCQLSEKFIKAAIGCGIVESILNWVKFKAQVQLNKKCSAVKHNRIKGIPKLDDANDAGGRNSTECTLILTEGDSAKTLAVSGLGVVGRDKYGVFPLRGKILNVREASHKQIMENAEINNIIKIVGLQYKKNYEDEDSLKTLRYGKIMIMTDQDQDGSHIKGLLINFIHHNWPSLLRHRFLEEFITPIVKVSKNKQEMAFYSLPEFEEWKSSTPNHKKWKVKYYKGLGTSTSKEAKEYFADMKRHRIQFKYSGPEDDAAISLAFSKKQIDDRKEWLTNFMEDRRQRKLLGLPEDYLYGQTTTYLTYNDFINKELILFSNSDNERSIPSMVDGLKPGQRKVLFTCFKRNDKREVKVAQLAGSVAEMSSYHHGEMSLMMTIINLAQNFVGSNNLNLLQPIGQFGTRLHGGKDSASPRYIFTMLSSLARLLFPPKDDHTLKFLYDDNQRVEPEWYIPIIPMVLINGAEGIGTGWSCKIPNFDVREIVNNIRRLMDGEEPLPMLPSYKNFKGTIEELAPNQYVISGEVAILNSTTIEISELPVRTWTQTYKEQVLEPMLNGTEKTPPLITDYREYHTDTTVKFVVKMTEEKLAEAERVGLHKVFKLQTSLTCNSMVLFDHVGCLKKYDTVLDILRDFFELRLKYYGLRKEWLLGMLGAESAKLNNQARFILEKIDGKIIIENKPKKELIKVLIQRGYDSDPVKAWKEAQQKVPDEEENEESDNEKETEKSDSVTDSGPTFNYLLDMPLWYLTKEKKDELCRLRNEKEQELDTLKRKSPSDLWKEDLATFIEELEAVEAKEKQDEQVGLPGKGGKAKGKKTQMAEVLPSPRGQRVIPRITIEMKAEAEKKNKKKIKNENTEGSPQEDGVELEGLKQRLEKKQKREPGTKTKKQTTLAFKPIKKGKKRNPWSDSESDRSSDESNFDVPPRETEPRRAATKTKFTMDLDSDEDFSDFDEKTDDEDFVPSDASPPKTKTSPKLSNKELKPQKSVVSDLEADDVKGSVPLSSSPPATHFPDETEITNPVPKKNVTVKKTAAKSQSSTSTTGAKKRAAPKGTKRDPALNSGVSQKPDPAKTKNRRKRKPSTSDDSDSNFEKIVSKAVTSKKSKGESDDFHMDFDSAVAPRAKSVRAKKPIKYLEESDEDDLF

`CCCc1cc(=O)oc2c(C(=O)N3CCCc4ccccc43)c(OCCO)ccc12` [5c]: the remaining activity at 0.03125 µM on recombinant human TOP2B (0.03125 μM, independent replicates, read-out: Normalized % TOP2B activity, ATPase) is 99.9%; at recombinant human TOP2A [2] (0.03125 μM, independent replicates, read-out: Normalized % TOP2A activity, ATPase), 97.4%. The remaining activity at 0.0625 µM stood at 98.5% on recombinant human TOP2B (0.0625 μM, independent replicates, read-out: Normalized % TOP2B activity, ATPase) and 86.8% on recombinant human TOP2A [2] (0.0625 μM, independent replicates, read-out: Normalized % TOP2A activity, ATPase). In addition, the remaining activity at 0.125 µM at recombinant human TOP2B (0.125 μM, independent replicates, read-out: Normalized % TOP2B activity, ATPase) stood at 96.8%; on recombinant human TOP2A [2] (0.125 μM, independent replicates, read-out: Normalized % TOP2A activity, ATPase), 79.9%. Also, the remaining activity at 0.25 µM at recombinant human TOP2B (0.25 μM, independent replicates, read-out: Normalized % TOP2B activity, ATPase) amounted to 89.9%; on recombinant human TOP2A [2] (0.25 μM, independent replicates, read-out: Normalized % TOP2A activity, ATPase), 62.7%. The remaining activity at 0.5 µM amounted to 77% on recombinant human TOP2B (0.5 μM, independent replicates, read-out: Normalized % TOP2B activity, ATPase) and 45.9% on recombinant human TOP2A [2] (0.5 μM, independent replicates, read-out: Normalized % TOP2A activity, ATPase). Further, the remaining activity at 1 µM at recombinant human TOP2B (1 μM, independent replicates, read-out: Normalized % TOP2B activity, ATPase) worked out at 61.7%; at recombinant human TOP2A [2] (1 μM, independent replicates, read-out: Normalized % TOP2A activity, ATPase), 25.8%. Also, the remaining activity at 2 µM was found to be 39.1% at recombinant human TOP2B (2 μM, independent replicates, read-out: Normalized % TOP2B activity, ATPase) and 11.6% on recombinant human TOP2A [2] (2 μM, independent replicates, read-out: Normalized % TOP2A activity, ATPase). Moreover, the remaining activity at 4 µM was determined as 16.4% on recombinant human TOP2B (4 μM, independent replicates, read-out: Normalized % TOP2B activity, ATPase) and 6.58% at recombinant human TOP2A [2] (4 μM, independent replicates, read-out: Normalized % TOP2A activity, ATPase). In addition, the remaining activity at 8 µM at recombinant human TOP2B (8 μM, independent replicates, read-out: Normalized % TOP2B activity, ATPase) is 6.04%; at recombinant human TOP2A [2] (8 μM, independent replicates, read-out: Normalized % TOP2A activity, ATPase), 3.17%. Further, the “SRbeta (SRTOP2B), TOP2 ATPase activity” value at recombinant human TOP2B (TOP2A IC50 divided by TOP2B IC50) came out at 3.8. Further, the IC50 at recombinant human TOP2B (n=3) was 400 nM and 410 nM; on recombinant human TOP2A [1], 3210 nM; on recombinant human TOP2A [2] (n=3), 1540 nM.
